For this test, the target named is T1, Human Factor XIIa (Homo sapiens, UniProt P00748).
T1 construct: purchased Enzyme Research Laboratories
T1 sequence (P00748 373-615 limits assumed): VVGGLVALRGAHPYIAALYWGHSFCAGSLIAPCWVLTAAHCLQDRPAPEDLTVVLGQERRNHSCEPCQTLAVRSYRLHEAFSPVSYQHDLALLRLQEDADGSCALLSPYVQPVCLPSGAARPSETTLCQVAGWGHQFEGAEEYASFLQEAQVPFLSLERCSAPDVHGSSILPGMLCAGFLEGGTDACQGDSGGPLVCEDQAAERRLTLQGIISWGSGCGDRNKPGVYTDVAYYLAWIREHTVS
T1 sequence (P00748 20-372 partner limits assumed): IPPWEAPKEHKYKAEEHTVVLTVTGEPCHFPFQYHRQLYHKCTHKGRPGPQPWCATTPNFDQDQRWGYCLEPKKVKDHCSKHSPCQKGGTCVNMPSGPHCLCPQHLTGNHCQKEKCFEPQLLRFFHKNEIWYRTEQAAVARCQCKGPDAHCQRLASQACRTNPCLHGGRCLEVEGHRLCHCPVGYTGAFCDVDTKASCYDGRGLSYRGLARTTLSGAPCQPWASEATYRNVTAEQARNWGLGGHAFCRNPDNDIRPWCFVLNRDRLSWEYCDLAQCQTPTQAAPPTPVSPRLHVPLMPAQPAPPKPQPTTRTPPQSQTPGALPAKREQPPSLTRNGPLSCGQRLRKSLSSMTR
Put plainly: Determination of FXIIa inhibition (in vitro IC50 assay, fluorogenic substrate H-DPro-Phe-Arg-AFC). Format: biochemical. To be noted: human Factor XIIa; fluorogenic substrate H-DPro-Phe-Arg-AFC at Km concentration; 5 min, 25 °C; class symbols; read-out: Human FXIIa IC50. In a few lines:
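Human FXIIa incubated at 25 °C with compound and H-DPro-Phe-Arg-AFC at its Km concentration. Linear fluorescence increase monitored over 5 min, expressed as % of uninhibited activity; IC50 is concentration giving 50% inhibition.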
In general, IC50 refers to the concentration that gives 50% inhibition. As for `Cn1ccc(OCC23CN(C(=O)NC4(C)CCOCC4)C(CNc4cccc5c(N)nccc45)(C2)C3)cc1=O` [Example 78, 1-(((1-aminoisoquinolin-5-yl)amino)methyl)-4-(((1-methyl-2-oxo-1,2-dihydropyridin-4-yl)oxy)methyl)-N-(4-methyltetrahydro-2H-pyran-4-yl)-2-azabicyclo[2.1.1]hexane-2-carboxamide], the half-maximal inhibitory concentration (IC50) is 10 to 100 nM.
Turning to `Cn1ccc(OCC23CN(C(=O)NC(C)(C)c4ccccc4)C(CNc4cccc5c(N)nccc45)(C2)C3)cc1=O` [Example 66, 1-(((1-Aminoisoquinolin-5-yl)amino)methyl)-4-(((1-methyl-2-oxo-1,2-dihydropyridin-4-yl)oxy)methyl)-N-(2-phenylpropan-2-yl)-2-azabicyclo[2.1.1]hexane-2-carboxamide], the 50% inhibitory concentration (IC50) was in the range of 1 to 10 nM.
In the case of `Cn1ccc(OCC23CN(C(=O)NC4(c5ccccc5)COC4)C(CNc4cccc5c(N)nccc45)(C2)C3)cc1=O` [Example 69, 1-(((1-aminoisoquinolin-5-yl)amino)methyl)-4-(((1-methyl-2-oxo-1,2-dihydropyridin-4-yl)oxy)methyl)-N-(3-phenyloxetan-3-yl)-2-azabicyclo [2.1.1]hexane-2-carboxamide] it was 1 to 10 nM; in that of `Cc1ncccc1NCC12CC(COc3cc(C)n(C)c(=O)c3)(CN1C(=O)NC1(c3ccccc3)CC1)C2` [Example 56, 4-(((1,6-dimethyl-2-oxo-1,2-dihydropyridin-4-yl)oxy)methyl)-1-(((2-methylpyridin-3-yl)amino)methyl)-N-(1-phenylcyclopropyl)-2-azabicyclo[2.1.1]hexane-2-carboxamide], 40000 to 100000 nM; in that of `CO[C@H]1CC[C@H](CC(=O)N2CC3(COc4cc(C)n(C)c(=O)c4)CC2(CNc2cccc4c(N)nccc24)C3)CC1` (single isomer, unassigned) [Example 24, 4-((1-(((1-aminoisoquinolin-5-yl)amino)methyl)-2-(2-((1r,4r)-4-methoxycyclohexyl)acetyl)-2-azabicyclo[2.1.1]hexan-4-yl)methoxy)-1,6-dimethylpyridin-2(1H)-one], 10 to 100 nM.
Turning to `Nc1nccc2c(NCC34CC(c5ncc(-c6ccccc6)o5)(CO3)C4)cccc12` [Example 1, N5-((4-(5-Phenyloxazol-2-yl)-2-oxabicyclo[2.1.1]hexan-1-yl)methyl)isoquinoline-1,5-diamine], the half-inhibitory concentration (IC50) lay within 40000 to 100000 nM.
As to `Cn1ccc(OCC23CN(C(=O)Cc4ccc5c(c4)NC(=O)CO5)C(CNc4cccc5c(N)nccc45)(C2)C3)cc1=O` [Example 17, 6-(2-(1-(((1-aminoisoquinolin-5-yl)amino)methyl)-4-(((1-methyl-2-oxo-1,2-dihydropyridin-4-yl)oxy)methyl)-2-azabicyclo[2.1.1]hexan-2-yl)-2-oxoethyl)-2H-benzo[b][1,4]oxazin-3(4H)-one], the IC50 lay within 1 to 10 nM.
With `COc1cccc(C2CCN(C(=O)N3CC4(COc5cc(C)n(C)c(=O)c5)CC3(CNc3cccc5c(N)nccc35)C4)C2)c1` (stereo not shown) [Example 86, 4-((1-(((1-aminoisoquinolin-5-yl)amino)methyl)-2-(3-(3-methoxyphenyl)pyrrolidine-1-carbonyl)-2-azabicyclo[2.1.1]hexan-4-yl)methoxy)-1,6-dimethylpyridin-2(1H)-one], the IC50 lay in the range of 10 to 100 nM.
In the case of `Cn1ccc(OCC23CN(c4ncc(C5CC5)cn4)C(CNc4cccc5c(N)nccc45)(C2)C3)cc1=O` [Example 93, 4-((1-(((1-aminoisoquinolin-5-yl)amino)methyl)-2-(5-cyclopropylpyrimidin-2-yl)-2-azabicyclo[2.1.1]hexan-4-yl)methoxy)-1-methylpyridin-2(1H)-one] it was 10 to 100 nM; in that of `Cc1cc(OCC23CN(C(=O)N(C)[C@H]4CCOC4)C(CNc4cccc5c(N)nccc45)(C2)C3)cc(=O)n1C` [Example 41, (S)-1-(((1-aminoisoquinolin-5-yl)amino)methyl)-4-(((1,6-dimethyl-2-oxo-1,2-dihydropyridin-4-yl)oxy)methyl)-N-methyl-N-(tetrahydrofuran-3-yl)-2-azabicyclo[2.1.1]hexane-2-carboxamide], 10 to 100 nM; in that of `Cn1ccc(OCC23CN(C(=O)C[C@@H]4CCOC4)C(CNc4cccc5c(N)nccc45)(C2)C3)cc1=O` [Example 11, (S)-4-((1-(((1-aminoisoquinolin-5-yl)amino)methyl)-2-(2-(tetrahydrofuran-3-yl)acetyl)-2-azabicyclo[2.1.1]hexan-4-yl)methoxy)-1-methylpyridin-2(1H)-one], 10 to 100 nM.
Consider `Cn1ccc(OCC23CN(C(=O)N4CCc5ccccc54)C(CNc4cccc5c(N)nccc45)(C2)C3)cc1=O` [Example 34, 4-((1-(((1-aminoisoquinolin-5-yl)amino)methyl)-2-(indoline-1-carbonyl)-2-azabicyclo[2.1.1]hexan-4-yl)methoxy)-1-methylpyridin-2(1H)-one], for which the IC50 fell in the range of 10 to 100 nM.
In the case of `Cn1ccc(OCC23CN(C(=O)Nc4ccc5c(c4)CCO5)C(CNc4cccc5c(N)nccc45)(C2)C3)cc1=O` [Example 38, 1-(((1-aminoisoquinolin-5-yl)amino)methyl)-N-(2,3-dihydrobenzofuran-5-yl)-4-(((1-methyl-2-oxo-1,2-dihydropyridin-4-yl)oxy)methyl)-2-azabicyclo[2.1.1]hexane-2-carboxamide], the IC50 is 1 to 10 nM.
In the case of `Cc1cc(OCC23CN(C(=O)NC4(c5ccccc5)CC4)C(CNc4ccc(N)nc4)(C2)C3)cc(=O)n1C` [Example 58, 1-(((6-aminopyridin-3-yl)amino)methyl)-4-(((1,6-dimethyl-2-oxo-1,2-dihydropyridin-4-yl)oxy)methyl)-N-(1-phenylcyclopropyl)-2-azabicyclo[2.1.1]hexane-2-carboxamide], the IC50 is 10000 to 40000 nM.
Regarding `Cc1cc(OCC23CN(C(=O)Nc4ccc5c(c4)CCC5)C(CNc4cccc5c(N)nccc45)(C2)C3)cc(=O)n1C` [Example 65, 1-(((1-Aminoisoquinolin-5-yl)amino)methyl)-N-(2,3-dihydro-1H-inden-5-yl)-4-(((1,6-dimethyl-2-oxo-1,2-dihydropyridin-4-yl)oxy)methyl)-2-azabicyclo[2.1.1]hexane-2-carboxamide], the half-inhibitory concentration (IC50) fell in the range of 1 to 10 nM.
Take `C[C@@H](NC(=O)N1CC2(COc3ccn(C)c(=O)c3)CC1(CNc1cccc3c(N)nccc13)C2)c1ccccc1` [Example 33, (R)-1-(((1-aminoisoquinolin-5-yl)amino)methyl)-4-(((1-methyl-2-oxo-1,2-dihydropyridin-4-yl)oxy)methyl)-N-(1-phenylethyl)-2-azabicyclo[2.1.1]hexane-2-carboxamide]: the IC50 is 10 to 100 nM.
On to `Cc1cc(OCC23CN(C(=O)N(C)[C@@H]4CCOC4)C(CNc4cccc5c(N)nccc45)(C2)C3)cc(=O)n1C` [Example 40, (R)-1-(((1-aminoisoquinolin-5-yl)amino)methyl)-4-(((1,6-dimethyl-2-oxo-1,2-dihydropyridin-4-yl)oxy)methyl)-N-methyl-N-(tetrahydrofuran-3-yl)-2-azabicyclo [2.1.1]hexane-2-carboxamide], for which the IC50 was 10 to 100 nM.
In the case of `Cn1ccc(OCC23CN(C(=O)N4CC[C@@H](c5ccccc5)C4)C(CNc4cccc5c(N)nccc45)(C2)C3)cc1=O` [Example 44, (S)-4-((1-(((1-aminoisoquinolin-5-yl)amino)methyl)-2-(3-phenylpyrrolidine-1-carbonyl)-2-azabicyclo[2.1.1]hexan-4-yl)methoxy)-1-methylpyridin-2(1H)-one], the IC50 lay in the range of 1 to 10 nM.
On to `Cn1ccc(OCC23CN(C(=O)NC4(C)COC4)C(CNc4cccc5c(N)nccc45)(C2)C3)cc1=O` [Example 79, 1-(((1-aminoisoquinolin-5-yl)amino)methyl)-4-(((1-methyl-2-oxo-1,2-dihydropyridin-4-yl)oxy)methyl)-N-(3-methyloxetan-3-yl)-2-azabicyclo[2.1.1]hexane-2-carboxamide], for which the half-maximal inhibitory concentration (IC50) lay in the range of 10 to 100 nM.
On to `Cn1ccc(OCC23CN(C(=O)N4CCCc5ccccc54)C(CNc4cccc5c(N)nccc45)(C2)C3)cc1=O` [Example 36, 4-((1-(((1-aminoisoquinolin-5-yl)amino)methyl)-2-(1,2,3,4-tetrahydroquinoline-1-carbonyl)-2-azabicyclo[2.1.1]hexan-4-yl)methoxy)-1-methylpyridin-2(1H)-one], for which the IC50 was in the range of 100 to 300 nM.
`Cn1ccc(OCC23CN(C(=O)NC4C5CC6CC(C5)CC4C6)C(CNc4cccc5c(N)nccc45)(C2)C3)cc1=O` (stereo not shown) [Example 61, N-(adamantan-2-yl)-1-(((1-aminoisoquinolin-5-yl)amino)methyl)-4-(((1-methyl-2-oxo-1,2-dihydropyridin-4-yl)oxy)methyl)-2-azabicyclo[2.1.1]hexane-2-carboxamide]: the IC50 lay within 10 to 100 nM.
Regarding `C[C@H](C(=O)N1CC2(COc3ccn(C)c(=O)c3)CC1(CNc1cccc3c(N)nccc13)C2)c1ccccc1` [Example 13, (S)-4-((1-(((1-aminoisoquinolin-5-yl)amino)methyl)-2-(2-phenylpropanoyl)-2-azabicyclo[2.1.1]hexan-4-yl)methoxy)-1-methylpyridin-2(1H)-one], the IC50 was 10 to 100 nM.
